US10654834B2 (Venenum Biodesign, LLC, priority 2016, dated 2020)

Biological target: T1, mouse TGR5 receptor (Mus musculus, UniProt Q80SS6)
T1 construct: host or cells: HEK293-EBNA (293 c18, ATCC CRL10852)
T1 sequence (Q80SS6 1-329): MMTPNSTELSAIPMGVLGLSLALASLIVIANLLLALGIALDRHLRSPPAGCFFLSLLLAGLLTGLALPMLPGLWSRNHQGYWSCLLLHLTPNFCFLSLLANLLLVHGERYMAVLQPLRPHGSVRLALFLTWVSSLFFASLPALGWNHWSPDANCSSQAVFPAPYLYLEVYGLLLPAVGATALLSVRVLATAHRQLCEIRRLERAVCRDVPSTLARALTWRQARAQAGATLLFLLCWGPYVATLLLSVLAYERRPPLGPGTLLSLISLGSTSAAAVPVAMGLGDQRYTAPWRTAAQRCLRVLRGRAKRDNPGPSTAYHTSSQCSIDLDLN
Experiment: Mouse TGR5 luminescent cAMP production assay (HEK293-EBNA cells, DiscoveRx cAMP XS+ kit)
Assay type: cell-based
Conditions: HEK293-EBNA cells overexpressing mouse TGR5, luminescent cAMP assay; read-out: Mouse TGR5 Lum. cAMP Activity (EC50)
Method in brief: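 HEK293-EBNA cells stably expressing mouse TGR5, resuspended in serum-free DMEM with 500 μM IBMX, were premixed 20 min with cAMP antibody, then exposed to half-log compound dilutions for 1 h at room temperature. cAMP was read by luminescent enzyme-fragment complementation (cAMP XS+) after overnight incubation; EC50 derived.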

## N#Cc1ccc(CCNC(=O)[C@@H]2CCCN2c2cc(N3CCC(CO)CC3)nc(C(F)(F)F)n2)cc1 [Compound 1, (S)—N-(4-cyanophenethyl)-1-(6-(4-(hydroxymethyl)piperidin-1-yl)-2-(trifluoromethyl)pyrimidin-4-yl)pyrrolidine-2-carboxamide]
  EC50: < 100 nM
